Results as given in patent publication US9827292B2, “Use of KGF in the treatment of menopausal disorders” (Università degli Studi di Roma “La Sapienza”, priority 2012, dated 2017).

Experiments:
[1] = tested on: KGFR; assay: KGFR mRNA expression by real-time PCR in MCF-7 cells; assay type: cell-based, human; settings: E2 20 ng/ml, 24 h, normalised to 18s, FIG. 3B
Description: (§1) The oestrogen receptor α-positive MCF-7 human breast adenocarcinoma cell line, acquired from American Type Culture Collection (no. HTB-22, ATCC-LGC Promochem, Teddington, UK), was cultured in Dulbecco's modified eagle's medium (DMEM; Invitrogen, Karlsruhe, Germany), supplemented with 10% foetal bovine serum (FBS; Invitrogen) and antibiotics. Primary cultures of human oestrogen-sensitive keratinocytes (KCs) were established from 1 cm^2 full-thickness mucosal biopsy of the vaginal vestibule. Following enzymatic dissociation, the keratinocytes were seeded onto culture plates coated with collagen IV (10 mg/ml), as previously reported [Panici et al, 2007], and were maintained in basal medium of the keratinocytes (KBM, Lonza) supplemented with aliquots of KGM (Lonza), with medium change twice a week. […]
The cells were harvested and the total RNA was extracted with the use of TRIzol reagent (Invitrogen). cDNA was generated with oligo (dT) from 1 μg of RNA using the SuperScript III reverse transcriptase kit (Invitrogen). After reverse transcription, the abundance of KGFR in MCF-7 cells treated and untreated with E2 was quantified by Q-RT-PCR. […] Relative quantification was performed using mRNA 18s as an endogenous control. The data were expressed as a rise of mRNA of KGFR compared to the control.

[2] = tested on: oestrogen response elements (EREs); assay: ERE-LUC dual-luciferase reporter assay in MCF-7 cells; assay type: cell-based, human; settings: 24 h treatment, FIG. 5
Description: MCF-7 cells were seeded onto 24-well plates with a cell/well density of […] and were co-transfected with 1 μg of the 3×ERE TATA LUC construct, a plasmid containing the reporter gene for firefly luciferase under the control of three DNA sequences to which the ER binds, called oestrogen response elements (EREs) (Addgene), and with 300 ng of control pRL-TK plasmid (renilla luciferase) for normalisation of the efficiency of the transfection process. The transfections were carried out using lipofectamine 2000 (Invitrogen) according to manufacturer's instructions. After 6 h, the cells were treated with KGF or E2. The luciferase activity was determined using a dual-luciferase reporter assay system (Promega) 24 h after the treatment, according to manufacturer's protocol. All the transfections were conducted in triplicate.

[3] = Serum concentrations of E2 and KGF by ELISA in treated mice; assay type: in vivo, mouse; settings: daily treatment for 60 days, ovariectomised mice, FIG. 7A
Description: The mouse strain CD1 was used in this study (Charles Rivers). The mice were held in a standard housing for laboratory animals with controlled lighting (12 h/day) and temperature (25±1° C.) and were provided with food and water ab libitum. All the experimental protocols concerning animals were in line with the Guidelines of Sapienza University for the care and use of laboratory animals and were approved by the Ethical Committee of the aforesaid institution. Forty female mice were subjected to an ovariectomy for the purpose of inducing vaginal atrophy and were administered a diet of Altromin C1000 without phytoestrogens (Altromin, Lage, Germany) for the duration of the experiments. After 30 days, the mice were treated locally, introducing daily into the vaginal canal 25 μl of hydrogel loaded with KGF (10 or 30 ng/day) or with E2 (30 ng/day or 1 μg/day). A control group was treated only with hydrogel. After 60 days of treatment, the mice were killed and the vaginas were immediately explanted, fixed in formalin and processed for histological analysis.
The concentrations of E2 and KGF in the serum of treated mice were measured using an ELISA standard kit (R & D Systems, Minneapolis, Minn., USA). The sensitivity of the ELISA assay was ≧10 pg/mL. Standard preparations of E2 or KGF were used as internal controls. The values are presented as mean±standard deviation. […]

[4] = tested on: ER alpha; assay: Western blot of ER alpha phosphorylation (Ser118) in MCF-7 cells; assay type: cell-based, human; settings: 20 ng/ml, FIG. 2D
Description: as §1
MCF-7 cells untreated or treated with KGF or E2 were lysed in RIPA buffer. […] The bound antibody was detected by enhanced chemiluminescence detection reagents (Pierce Biotechnology, Inc, Rockford, Ill., USA), according to manufacturer's instructions. […] Densitometric analysis was performed using Quantity One Program (Bio-Rad Laboratories srl, Segrate, MI, Italy).

| Molecule | KGFR mRNA expression compared to untreated cells [1] | activation of ERE-luciferase construct (genomic pathway) [2] | release into the bloodstream (serum levels by ELISA) after local vaginal treatment [3] | phosphorylation of ER alpha (Ser118) [4] |
| --- | --- | --- | --- | --- |
| C[C@]12CC[C@@H]3c4ccc(O)cc4CC[C@H]3[C@@H]1CC[C@@H]2O [E2, 17β-oestradiol] | 2.2 fold increase | able to determine the activation of such a construction | reached the bloodstream even after treatment at low doses | – |
| keratinocyte growth factor (protein, listed as Homo sapiens, human recombinant KGF (Upstate Biotechnology)) MHKWILTWILPTLLYRSCFHIICLVGTISLACNDMTPEQMATNVNCSSPERHTRSYDYMEGGDIRVRRLFCRTQWYLRIDKRGKVKGTQEMKNNYNIMEIRTVAVGIVAIKGVESEFYLAMNKEGKLYAKKECNEDCNFKELILENHYNTYASAKWTHNGGEMFVALNQKGIPVRGKKTKKEQKTAHFLPMAIT | – | absence of stimulation of the genomic pathway of the oestrogens | – | able to induce, equally to E2, phosphorylation of ER alpha |
